Data set [1] can be described thus: Increase in mass of solid samples stored at ambient temperatures over time. The data set is classed as physicochemical. As to conditions: ambient storage. An excerpt:
(§1) Samples of the materials were stored at ambient temperatures and the appearance of the samples and the mass thereof were noted over time.

The nature of data set [2]: Appearance of solid samples stored at ambient temperatures over time. The class given is physicochemical. As to conditions: ambient storage.
Excerpt: as §1

The conditions of data set [3]: solid form of the commercially available material; cited from earlier work.

In the case of `O=C1CCC(=O)ON2CCN(O1)OC(=O)CCC(=O)O2.[Na].[Na].[Na]` [Na3EDDS, trisodium ethylenediamine disuccinate], the “% increase in mass after 2 h” value in data set [1] (2 h) came to 7.4%. In addition, the “% increase in mass after 4 h” value in data set [1] (4 h) stood at 8.9%. In data set [1] (72 h), the “% increase in mass after 72 h” value was 25%. In addition, the “Appearance (2 h), printed in the column after 24 hr” value in data set [2] (2 h) is given as “Sticky solid”. Besides, in data set [2] (48 hr), the “Appearance after 48 hr” value is listed as “Very stick”. Moreover, in data set [2] (72 hr), the “Appearance after 72 hr” value is “Very sticky”. In addition, the “Initial Appearance” value in data set [2] (initial) is reported as “Free flowing”. In data set [3], the “hygroscopicity of the solid form” value was “very hygroscopic”.
